Data taken from PubChem BioAssay AID449758 (The Scripps Research Institute Molecular Screening Center, 2010).
Activity calls are given as the source filed them. The rule behind the calls is not given here.

What follows are molecules tested on Human cells, IFNg-induced IRF-1 mRNA, SYBR qPCR (assay: reduction of STAT1 target gene IRF-1 transcripts – cell-based, SYBR qPCR, powder samples, counter-screen for STAT1 inhibitor project, late-stage follow-up (AID 449758)). Conditions: at 10 µM; hits give low values.

Row | Structure (SMILES) | fold change
1 | Cc1ccc(-n2nc(C(=O)O)c3ccccc3c2=O)cc1C | 0.764 (inactive)
2 | CCOC(=O)N1CCN(C(=O)c2ccc(-n3c(=S)[nH]c4ccccc4c3=O)cc2)CC1 | 0.883 (inactive)
3 | Cc1cc(=O)n(C(NC(=O)c2ccccc2)C(=O)c2ccccc2)cn1 (stereo not given) | 1.24 (inactive)
4 | O=c1cc(CSc2nc3ccccc3c(=O)[nH]2)c2ccc(O)cc2o1 | 1.36 (inactive)
5 | CCOC(=O)C(=CNc1cc(C)nn1-c1ccccc1)C(=O)OCC | 0.997 (inactive)
